Data: the NIST ThermoML archive (doi:10.1016/j.jct.2016.03.030)
Numbers after ± are expanded uncertainties.

Test: xn = mol fraction of the nth substance listed
Conditions: 100 kPa, Liquid; for viscosity: Falling or rolling sphere viscometry; for mass density: Vibrating tube method

CCCCC[N+]1(C)CCCCC1.[Br-] [1-methyl-1-pentylpiperidinium bromide] + O
Conditions | mass density, 298.15 K [kg/m3] | mass density, 303.15 K [kg/m3] | mass density, 308.15 K [kg/m3] | mass density, 313.15 K [kg/m3] | mass density, 318.15 K [kg/m3] | viscosity, 298.15 K [mPa·s] | viscosity, 303.15 K [mPa·s] | viscosity, 308.15 K [mPa·s] | viscosity, 313.15 K [mPa·s] | viscosity, 318.15 K [mPa·s]
x1 = 0.003 | 1003.5 ± 1.1 | 1002 ± 1.1 | 1000.2 ± 1.1 | 998.2 ± 1.1 | 996.1 ± 1.1 | – | – | – | – | –
x1 = 0.0072 | 1012 ± 1.1 | 1010.4 ± 1.1 | 1008.6 ± 1.1 | 1006.5 ± 1.1 | 1004.2 ± 1.1 | – | – | – | – | –
x1 = 0.0119 | 1021.1 ± 1.1 | 1019.3 ± 1.1 | 1017.3 ± 1.1 | 1015.1 ± 1.1 | 1012.8 ± 1.1 | – | – | – | – | –
x1 = 0.0427 | 1070.7 ± 1 | 1067.8 ± 1 | 1064.8 ± 1 | 1061.8 ± 1 | 1058.7 ± 1 | 2.961 ± 0.3 | 2.439 ± 0.24 | 1.881 ± 0.19 | 1.639 ± 0.16 | 1.441 ± 0.14
x1 = 0.0615 | 1091.4 ± 1 | 1088.2 ± 1 | 1084.9 ± 1 | 1081.5 ± 1 | 1078.1 ± 1 | 4.385 ± 0.44 | 3.663 ± 0.37 | 3.087 ± 0.31 | 2.632 ± 0.26 | 2.267 ± 0.23
x1 = 0.0839 | 1110.2 ± 1 | 1106.7 ± 1 | 1103.2 ± 1 | 1099.7 ± 1 | 1096.1 ± 1 | 6.713 ± 0.67 | 5.513 ± 0.55 | 4.576 ± 0.46 | 3.846 ± 0.39 | 3.269 ± 0.33
x1 = 0.1192 | 1131.1 ± 1 | 1127.5 ± 1 | 1123.9 ± 1 | 1120.3 ± 1 | 1116.6 ± 1 | 12.34 ± 1.2 | 9.841 ± 0.99 | 8.001 ± 0.8 | 6.581 ± 0.66 | 5.458 ± 0.55
x1 = 0.1491 | 1144 ± 1 | 1140.4 ± 1 | 1136.8 ± 1 | 1133.2 ± 1 | 1129.5 ± 1 | 17.14 ± 1.7 | 12.93 ± 1.3 | 9.983 ± 1 | 8.698 ± 0.87 | 7.311 ± 0.73
x1 = 0.2004 | 1159.3 ± 1.1 | 1153.7 ± 1.1 | 1152.1 ± 1.1 | 1148.2 ± 1.1 | 1144.5 ± 1.1 | 27.79 ± 2.8 | 21.75 ± 2.2 | 16.35 ± 1.6 | 14.09 ± 1.4 | 11.22 ± 1.1
x1 = 0.2206 | 1163.7 ± 1.1 | 1160.2 ± 1.1 | 1156.7 ± 1.1 | 1153.1 ± 1.1 | 1149.5 ± 1.1 | 41.58 ± 4.2 | 29.41 ± 3 | 23.02 ± 2.3 | 18.11 ± 1.8 | 14.1 ± 1.4
x1 = 0.2393 | 1167.7 ± 1.1 | 1164.2 ± 1.1 | 1160.7 ± 1.1 | 1157.1 ± 1.1 | 1153.6 ± 1.1 | 58.11 ± 5.8 | 44.51 ± 4.5 | 33.69 ± 3.4 | 25.85 ± 2.6 | 20.21 ± 2
x1 = 0.2655 | 1172.3 ± 1.2 | 1168.8 ± 1.2 | 1165.3 ± 1.2 | 1161.8 ± 1.2 | 1158.3 ± 1.2 | 95.22 ± 9.7 | 68.59 ± 6.9 | 50.52 ± 5.1 | 38.16 ± 3.8 | 29.44 ± 3
x1 = 0.2745 | 1173.8 ± 1.2 | 1170.3 ± 1.2 | 1166.8 ± 1.2 | 1163.3 ± 1.2 | 1159.8 ± 1.2 | 107.8 ± 11 | 77.28 ± 7.8 | 56.51 ± 5.7 | 42.34 ± 4.3 | 32.5 ± 3.3
